The results in this text go back to patent US9376436B2, “2-(pyridin-2yl)-1, 7-diaza-spiro [4.4] nonane-6-one compound as voltage-gated sodium channels modulators” (CONVERGENCE PHARMACEUTICALS LIMITED, priority 2011, dated 2016).

This assay deals with T1, hNaV1.7 (Homo sapiens, UniProt Q15858).
T1 construct: expressed in transfected cells; host or cells: HEK293
Put plainly: QPatch NaV1.7 assay (whole-cell patch clamp, QPatch16x). The settings on record: HEK293-hNaV1.7 cells. Type of assay: cell-based. The procedure, abridged: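 HEK293 cells expressing hNaV1.7 recorded by automated whole-cell patch clamp (CsF internal, pH 7.3). Peak currents from 20 ms steps to 0 mV measured at holding potentials of −90 mV and V1/2 SSI; four-point cumulative concentrations, 120 s each, Hill fits gave pIC50 at each potential.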

Where [1] appears, read: holding voltage V1/2 SSI (half of channels inactivated), read-out: QP Nav1.7 SSI vhalf pIC50 (converted).
The mark [2] stands for this setting: holding voltage −90 mV (most channels closed), read-out: QP Nav1.7 −90 mV pIC50 (converted).

Structures can show the parent of a compound that is named as a salt. Where two headings read alike, the source gives them in different places.

T1 sequence (Q15858 whole entry): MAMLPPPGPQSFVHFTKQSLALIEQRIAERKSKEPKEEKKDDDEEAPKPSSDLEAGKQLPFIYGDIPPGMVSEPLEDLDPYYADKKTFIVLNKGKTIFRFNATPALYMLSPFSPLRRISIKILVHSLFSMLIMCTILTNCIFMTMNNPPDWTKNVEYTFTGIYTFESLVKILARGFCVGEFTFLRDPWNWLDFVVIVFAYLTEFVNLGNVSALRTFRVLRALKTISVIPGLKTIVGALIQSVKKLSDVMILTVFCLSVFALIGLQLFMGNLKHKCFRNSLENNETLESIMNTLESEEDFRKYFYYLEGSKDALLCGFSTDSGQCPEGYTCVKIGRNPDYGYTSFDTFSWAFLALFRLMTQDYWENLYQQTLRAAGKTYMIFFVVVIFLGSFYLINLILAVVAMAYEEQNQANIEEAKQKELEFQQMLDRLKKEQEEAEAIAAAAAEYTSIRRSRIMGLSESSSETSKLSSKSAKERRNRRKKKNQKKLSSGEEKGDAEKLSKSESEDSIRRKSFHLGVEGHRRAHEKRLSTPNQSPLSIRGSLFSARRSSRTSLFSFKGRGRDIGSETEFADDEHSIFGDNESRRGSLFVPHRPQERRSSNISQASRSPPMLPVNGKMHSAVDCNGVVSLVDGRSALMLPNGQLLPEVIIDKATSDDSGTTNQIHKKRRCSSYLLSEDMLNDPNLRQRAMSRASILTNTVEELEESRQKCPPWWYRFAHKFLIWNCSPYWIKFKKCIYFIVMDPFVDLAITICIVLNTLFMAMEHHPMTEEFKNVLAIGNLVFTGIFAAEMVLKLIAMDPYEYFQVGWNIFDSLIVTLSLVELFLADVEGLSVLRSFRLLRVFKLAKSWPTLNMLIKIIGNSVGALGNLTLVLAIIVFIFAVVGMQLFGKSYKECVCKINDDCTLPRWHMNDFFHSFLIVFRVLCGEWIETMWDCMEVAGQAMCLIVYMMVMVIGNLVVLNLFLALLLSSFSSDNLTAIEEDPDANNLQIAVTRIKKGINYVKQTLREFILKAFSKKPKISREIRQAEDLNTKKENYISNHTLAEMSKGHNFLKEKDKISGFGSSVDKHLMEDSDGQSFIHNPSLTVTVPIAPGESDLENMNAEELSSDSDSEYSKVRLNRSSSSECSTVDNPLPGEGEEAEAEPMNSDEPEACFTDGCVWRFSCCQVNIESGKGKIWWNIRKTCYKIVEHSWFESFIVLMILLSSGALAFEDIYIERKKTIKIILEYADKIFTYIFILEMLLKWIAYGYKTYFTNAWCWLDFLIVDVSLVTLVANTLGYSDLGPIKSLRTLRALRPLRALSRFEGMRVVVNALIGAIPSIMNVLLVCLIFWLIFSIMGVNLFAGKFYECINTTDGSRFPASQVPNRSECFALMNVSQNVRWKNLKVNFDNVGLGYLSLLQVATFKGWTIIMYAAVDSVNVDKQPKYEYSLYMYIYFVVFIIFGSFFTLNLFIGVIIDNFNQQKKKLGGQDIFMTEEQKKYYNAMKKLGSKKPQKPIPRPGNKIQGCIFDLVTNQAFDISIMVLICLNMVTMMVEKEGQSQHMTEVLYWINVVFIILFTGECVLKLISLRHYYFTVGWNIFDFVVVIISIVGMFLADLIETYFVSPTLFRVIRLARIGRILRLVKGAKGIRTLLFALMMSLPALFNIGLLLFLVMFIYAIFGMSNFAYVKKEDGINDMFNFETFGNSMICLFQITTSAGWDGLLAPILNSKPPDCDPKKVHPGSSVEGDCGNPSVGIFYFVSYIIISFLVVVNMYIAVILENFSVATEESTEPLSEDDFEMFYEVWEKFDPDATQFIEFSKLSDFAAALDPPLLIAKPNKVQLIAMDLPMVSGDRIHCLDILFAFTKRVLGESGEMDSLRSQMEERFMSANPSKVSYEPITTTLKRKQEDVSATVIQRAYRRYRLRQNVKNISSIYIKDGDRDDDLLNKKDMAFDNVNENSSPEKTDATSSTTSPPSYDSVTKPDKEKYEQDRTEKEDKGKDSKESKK

On to `CCc1cccc(-c2cc(C)nc([C@H]3CC[C@@]4(CCN(C)C4=O)N3)c2)c1` [Example 205, (2R,5S)-2-[4-(3-Ethylphenyl)-6-methyl-2-pyridyl]-7-methyl-1,7-diazaspiro[4.4]nonan-6-one hydrochloride], for which the IC50 is, setting by setting: under setting [1], 6.31 µM; under setting [2], 63.1 µM.

As for `CCc1cccc(-c2cc(C)nc([C@H]3CC[C@@]4(CCN(C)C4=O)N3)c2)c1F` [Example 206, (2R,5S)-2-[4-(3-Ethyl-2-fluoro-phenyl)-6-methyl-2-pyridyl]-7-methyl-1,7-diazaspiro[4.4]nonan-6-one hydrochloride], the IC50 was 10 µM under setting [1] and 63.1 µM under setting [2].

For `CCOc1cccc(-c2cc(C)nc([C@H]3CC[C@@]4(CCN(C)C4=O)N3)c2)c1` [Example 207, (2R,5S)-2-[4-(3-Ethoxyphenyl)-6-methyl-2-pyridyl]-7-methyl-1,7-diazaspiro[4.4]nonan-6-one hydrochloride], the IC50 under setting [1] is 6.31 µM and the IC50 under setting [2] is 79.4 µM.

Regarding `Cc1cc(-c2cc3c(cc2F)CCO3)cc([C@@H]2CC[C@]3(CCN(C)C3=O)N2)n1` [Example 208, (2S,5R)-2-[4-(5-Fluoro-2,3-dihydrobenzofuran-6-yl)-6-methyl-2-pyridyl]-7-methyl-1,7-diazaspiro[4.4]nonan-6-one hydrochloride], the IC50 runs as follows: under setting [1], 100 µM; under setting [2], 158 µM.

`Cc1cc(-c2ccc(OC(C)C)nc2)cc([C@@H]2CC[C@]3(CCN(C)C3=O)N2)n1` [Example 209, (2S,5R)-2-[4-(6-Isopropoxy-3-pyridyl)-6-methyl-2-pyridyl]-7-methyl-1,7-diazaspiro[4.4]nonan-6-one hydrochloride]: the IC50 by setting is: under setting [1], 3.16 µM; under setting [2], 25.1 µM.

Turning to `CCS(=O)(=O)c1ccc(-c2cc(C)nc([C@@H]3CC[C@]4(CCN(C)C4=O)N3)c2)cc1` [Example 210, (2S,5R)-2-[4-(4-Ethylsulfonylphenyl)-6-methyl-2-pyridyl]-7-methyl-1,7-diazaspiro[4.4]nonan-6-one hydrochloride], the IC50 under setting [1] was 398 µM.

`Cc1cc(-c2cc(F)ccc2F)cc([C@H]2CC[C@@]3(CCN(C)C3=O)N2)n1` [Example 211, (2R,5S)-2-[4-(2,5-Difluorophenyl)-6-methyl-2-pyridyl]-7-methyl-1,7-diazaspiro[4.4]nonan-6-one hydrochloride]: the IC50 reads like this: under setting [1], 25.1 µM; under setting [2], 251 µM.

Consider `CCOc1ccc(F)c(-c2ccnc([C@H]3CC[C@]4(CCN(C)C4=O)N3)c2C)c1` [Example 212, (2R,5R)-2-[4-(5-Ethoxy-2-fluoro-phenyl)-3-methyl-2-pyridyl]-7-methyl-1,7-diazaspiro[4.4]nonan-6-one hydrochloride], for which the IC50 reads like this: under setting [1], 5.01 µM; under setting [2], 63.1 µM.

Regarding `CCOc1ccc(F)c(-c2ccnc([C@@H]3CC[C@]4(CCN(C)C4=O)N3)c2C)c1` [Example 213, (2S,5R)-2-[4-(5-Ethoxy-2-fluoro-phenyl)-3-methyl-2-pyridyl]-7-methyl-1,7-diazaspiro[4.4]nonan-6-one hydrochloride], the IC50 under setting [1] is 6.31 µM and the IC50 under setting [2] was 63.1 µM.

In the case of `CCOc1ccc(F)c(-c2ccnc([C@@H]3CC[C@@]4(CCN(C)C4=O)N3)c2C)c1` [Example 214, (2S,5S)-2-[4-(5-Ethoxy-2-fluoro-phenyl)-3-methyl-2-pyridyl]-7-methyl-1,7-diazaspiro[4.4]nonan-6-one hydrochloride], the IC50 was 3.98 µM under setting [1] and 31.6 µM under setting [2].

`CCOc1ccc(F)c(-c2ccnc([C@H]3CC[C@@]4(CCN(C)C4=O)N3)c2C)c1` [Example 215, (2R,5S)-2-[4-(5-Ethoxy-2-fluoro-phenyl)-3-methyl-2-pyridyl]-7-methyl-1,7-diazaspiro[4.4]nonan-6-one hydrochloride]: the IC50 is, setting by setting: under setting [1], 12.6 µM; under setting [2], 126 µM.

Take `CCOc1ccc(F)c(-c2ccnc([C@@H]3CC[C@@]4(CC(C)(C)NC4=O)N3)c2)c1` [Example 216, (2S,5S)-2-[4-(5-Ethoxy-2-fluoro-phenyl)-2-pyridyl]-8,8-dimethyl-1,7-diazaspiro[4.4]nonan-6-one hydrochloride]: the IC50 was 5.01 µM under setting [1] and 31.6 µM under setting [2].

`CCOc1ccc(F)c(-c2ccnc([C@H]3CC[C@@]4(CC(C)(C)NC4=O)N3)c2)c1` [Example 217, (2R,5S)-2-[4-(5-Ethoxy-2-fluoro-phenyl)-2-pyridyl]-8,8-dimethyl-1,7-diazaspiro[4.4]nonan-6-one hydrochloride]: the IC50 is 3.98 µM under setting [1] and 25.1 µM under setting [2].

As to `CCOc1ccc(F)c(-c2ccnc([C@H]3CC[C@]4(CC(C)(C)NC4=O)N3)c2)c1` [Example 218, (2R,5R)-2-[4-(5-Ethoxy-2-fluoro-phenyl)-2-pyridyl]-8,8-dimethyl-1,7-diazaspiro[4.4]nonan-6-one hydrochloride], the IC50 under setting [1] is 0.501 µM and the IC50 under setting [2] was 6.31 µM.

As to `CCOc1ccc(F)c(-c2ccnc([C@@H]3CC[C@]4(CC(C)(C)NC4=O)N3)c2)c1` [Example 219, (2S,5R)-2-[4-(5-Ethoxy-2-fluoro-phenyl)-2-pyridyl]-8,8-dimethyl-1,7-diazaspiro[4.4]nonan-6-one hydrochloride], the IC50 is 7.94 µM under setting [1] and 50.1 µM under setting [2].

As to `CC1(C)C[C@]2(CC[C@H](c3cc(-c4cc(O)ccc4F)ccn3)N2)C(=O)N1` [Example 220, (2R,5R)-2-[4-(2-Fluoro-5-hydroxy-phenyl)-2-pyridyl]-8,8-dimethyl-1,7-diazaspiro[4.4]nonan-6-one], the IC50 is, setting by setting: under setting [1], 50.1 µM; under setting [2], 200 µM.

With `CCOc1ccc(F)c(-c2cc([C@@H]3CC[C@]4(CCN(C)C4=O)N3)ncc2F)c1` [Example 221, (2S,5R)-2-[4-(5-Ethoxy-2-fluoro-phenyl)-5-fluoro-2-pyridyl]-7-methyl-1,7-diazaspiro[4.4]nonan-6-one hydrochloride], the IC50 by setting is: under setting [1], 31.6 µM; under setting [2], 316 µM.

In the case of `CCOc1ccc(F)c(-c2cc([C@H]3CC[C@]4(CCN(C)C4=O)N3)ncc2F)c1` [Example 222, (2R,5R)-2-[4-(5-Ethoxy-2-fluoro-phenyl)-5-fluoro-2-pyridyl]-7-methyl-1,7-diazaspiro[4.4]nonan-6-one hydrochloride], the IC50 is 25.1 µM under setting [1] and 398 µM under setting [2].

Consider `CCOc1ccc(F)c(-c2cc([C@H]3CC[C@@]4(CCN(C)C4=O)N3)ncc2F)c1` [Example 223, (2R,5S)-2-[4-(5-Ethoxy-2-fluoro-phenyl)-5-fluoro-2-pyridyl]-7-methyl-1,7-diazaspiro[4.4]nonan-6-one hydrochloride], for which the IC50 runs as follows: under setting [1], 25.1 µM; under setting [2], 158 µM.

In the case of `CCOc1ccc(F)c(-c2cc([C@@H]3CC[C@@]4(CCN(C)C4=O)N3)ncc2F)c1` [Example 224, (2S,5S)-2-[4-(5-Ethoxy-2-fluoro-phenyl)-5-fluoro-2-pyridyl]-7-methyl-1,7-diazaspiro[4.4]nonan-6-one hydrochloride], the IC50 runs as follows: under setting [1], 15.8 µM; under setting [2], 100 µM.

With `CN1CC[C@@]2(CC[C@H](c3cc(-c4ccc(C(F)(F)F)cc4)ccn3)N2C)C1=O` [Example 225, (2R,5S)-1,7-Dimethyl-2-[4-[4-(trifluoromethyl)phenyl]-2-pyridyl]-1,7-diazaspiro[4.4]nonan-6-one hydrochloride], the IC50 reads like this: under setting [1], 25.1 µM; under setting [2], 251 µM.

In the case of `Cc1cc(-c2ccc(C(F)(F)F)cc2)cc([C@@H]2CC[C@@]3(CCNC3=O)N2C)n1` [Example 226, (2S,5S)-1-Methyl-2-[6-methyl-4-[4-(trifluoromethyl)phenyl]-2-pyridyl]-1,7-diazaspiro[4.4]nonan-6-one hydrochloride], the IC50 under setting [1] was 12.6 µM and the IC50 under setting [2] is 1580 µM.

`Cc1cc(-c2ccc(C(F)(F)F)cc2)cc([C@H]2CC[C@]3(CCNC3=O)N2C)n1` [Example 227, (2R,5R)-1-Methyl-2-[6-methyl-4-[4-(trifluoromethyl)phenyl]-2-pyridyl]-1,7-diazaspiro[4.4]nonan-6-one hydrochloride]: the IC50 is 12.6 µM under setting [1] and 158 µM under setting [2].

For the compound `Cc1cc(-c2ccc(C(F)(F)F)cc2)cc([C@@H]2CC[C@]3(CCNC3=O)N2C)n1` [Example 228, (2S,5R)-1-Methyl-2-[6-methyl-4-[4-(trifluoromethyl)phenyl]-2-pyridyl]-1,7-diazaspiro[4.4]nonan-6-one hydrochloride], the IC50 was 3.16 µM under setting [1] and 20 µM under setting [2].

Turning to `Cc1cc(-c2ccc(C(F)(F)F)cc2)cc([C@H]2CC[C@@]3(CCNC3=O)N2C)n1` [Example 229, (2R,5S)-1-Methyl-2-[6-methyl-4-[4-(trifluoromethyl)phenyl]-2-pyridyl]-1,7-diazaspiro[4.4]nonan-6-one hydrochloride], the IC50 by setting is: under setting [1], 3.16 µM; under setting [2], 63.1 µM.

Consider `CN1[C@H](c2cc(-c3ccc(C(F)(F)F)cc3)ccn2)CC[C@]12CCCNC2=O` [Example 230, hydrochloride], for which the IC50 is, setting by setting: under setting [1], 1.26 µM; under setting [2], 25.1 µM.

In the case of `CCOc1ccc(F)c(-c2cc(C)nc([C@@H]3CC[C@]4(CCN(C)C4=O)N3C)c2)c1` [Example 231, (2S,5R)-2-[4-(5-Ethoxy-2-fluoro-phenyl)-6-methyl-2-pyridyl]-1,7-dimethyl-1,7-diazaspiro-[4.4]nonan-6-one hydrochloride], the IC50 under setting [1] was 1 µM and the IC50 under setting [2] was 12.6 µM.

Regarding `CN1[C@@H](c2cc(-c3ccc(C(F)(F)F)cc3)ccn2)CC[C@]12CCCNC2=O` [Example 232, hydrochloride], the IC50 by setting is: under setting [1], 1.26 µM; under setting [2], 7.94 µM.

`CCN1[C@H](c2cc(-c3ccc(C(F)(F)F)cc3)ccn2)CC[C@]12CCCNC2=O` [Example 233, hydrochloride]: the IC50 reads like this: under setting [1], 12.6 µM; under setting [2], 31.6 µM.
